What was measured:
Type in all cases: functional
T47D [1] = assay: Effective dose to show cytotoxicity against breast cancer T-47D cell line was determined; details: Homo sapiens, read-out: ED50 (the source's name)
T47D [2] = assay: Cytotoxicity exhibited by the compound for total growth inhibition of breast cancer T-47D cell line; details: Homo sapiens
MDA-MB-453 = assay: Concentration for 50% cell kill against breast cancer MDA-MB-435 cell line was determined; details: Homo sapiens, read-out: LC50 (the source's name)
MDA-N [3] = assay: Effective dose to show cytotoxicity against breast cancer MDA-N cell line was determined; details: Homo sapiens, read-out: ED50 (the source's name)
MDA-N [4] = assay: Concentration for 50% cell kill against breast cancer MDA-N cell line was determined; details: Homo sapiens, read-out: LC50 (the source's name)
MDA-N [5] = assay: Cytotoxicity exhibited by the compound for total growth inhibition of breast cancer MDA-N cell line; details: Homo sapiens
CAKI-1 = assay: The compound was evaluated for cytotoxicity against CAKI-1 renal cancer cell line; details: Homo sapiens
COLO 205 [6] = assay: Concentration for 50% cell kill against colon cancer COLO 205 cell line was determined; details: Homo sapiens, read-out: LC50 (the source's name)
COLO 205 [7] = assay: Cytotoxicity exhibited by the compound for total growth inhibition of colon cancer COLO 205 cell line; details: Homo sapiens
HCT-116 [8] = assay: The compound was evaluated for cytotoxicity against HCT116 colon cancer cell line; details: Homo sapiens
HCT-116 [9] = assay: Concentration for 50% cell kill against colon cancer HCT116 cell line was determined; details: Homo sapiens, read-out: LC50 (the source's name)
HCT-116 [10] = assay: Effective dose to show cytotoxicity against colon cancer HCT116 cell line was determined; details: Homo sapiens, read-out: ED50 (the source's name)
KM12 [11] = assay: Concentration for 50% cell kill against colon cancer KM-12 cell line was determined; details: Homo sapiens, read-out: LC50 (the source's name)
KM12 [12] = assay: Cytotoxicity exhibited by the compound for total growth inhibition of colon cancer KM-12 cell line; details: Homo sapiens
IGROV-1 = assay: The compound was evaluated for cytotoxicity against IGROV1 ovarian cancer cell line; details: Homo sapiens
KM12 [13] = assay: Effective dose to show cytotoxicity against colon cancer KM-12 cell line was determined; details: Homo sapiens, read-out: ED50 (the source's name)
MOLT-4 [14] = assay: Effective dose to show cytotoxicity against leukemia MOLT-4 cell line was determined; details: Homo sapiens, read-out: ED50 (the source's name)
K562 [15] = assay: Concentration for 50% cell kill against leukemia K-562 cell line was determined; details: Homo sapiens, read-out: LC50 (the source's name)
K562 [16] = assay: Cytotoxicity exhibited by the compound for total growth inhibition of leukemia K-562 cell line; details: Homo sapiens
CCRF-CEM [17] = assay: Concentration for 50% cell kill against leukemia CCRF-CEM cell line was determined; details: Homo sapiens, read-out: LC50 (the source's name)
CCRF-CEM [18] = assay: Cytotoxicity exhibited by the compound for total growth inhibition of leukemia CCRF-CEM cell line; details: Homo sapiens
HL-60 [19] = assay: Concentration for 50% cell kill against leukemia HL-60 (TB) cell line was determined; details: Homo sapiens, read-out: LC50 (the source's name)
HL-60 [20] = assay: Effective dose to show cytotoxicity against leukemia HL-60 (TB) cell line was determined; details: Homo sapiens, read-out: ED50 (the source's name)
K562 [21] = assay: Effective dose to show cytotoxicity against leukemia K-562 cell line was determined; details: Homo sapiens, read-out: ED50 (the source's name)
RPMI-8226 [22] = assay: Effective dose to show cytotoxicity against leukemia RPMI-8226 cell line was determined; details: Homo sapiens, read-out: ED50 (the source's name)
RPMI-8226 [23] = assay: Concentration for 50% cell kill against leukemia RPMI-8226 cell line was determined; details: Homo sapiens, read-out: LC50 (the source's name)
RPMI-8226 [24] = assay: Cytotoxicity exhibited by the compound for total growth inhibition of leukemia RPMI-8226 cell line; details: Homo sapiens
SR [25] = assay: Effective dose to show cytotoxicity against leukemia SR cell line was determined; details: Homo sapiens, read-out: ED50 (the source's name)
SR [26] = assay: Cytotoxicity exhibited by the compound for total growth inhibition of leukemia SR cell line; details: Homo sapiens
MOLT-4 [27] = assay: Concentration for 50% cell kill against leukemia MOLT-4 cell line was determined; details: Homo sapiens, read-out: LC50 (the source's name)
MOLT-4 [28] = assay: Cytotoxicity exhibited by the compound for total growth inhibition of leukemia MOLT-4 cell line; details: Homo sapiens
CCRF-CEM [29] = assay: Effective dose to show cytotoxicity against leukemia CCRF-CEM cell line was determined; details: Homo sapiens, read-out: ED50 (the source's name)
MDA-N [30] = assay: The compound was evaluated for cytotoxicity against MDA-N breast cancer cell line; details: Homo sapiens
LOX IMVI [31] = assay: Effective dose to show cytotoxicity against melanomaLOX IMVI cell line was determined; details: Homo sapiens, read-out: ED50 (the source's name)
MOLT-4 [32] = assay: The compound was evaluated for cytotoxicity against MOLT-4 leukemia cell line; details: Homo sapiens
LOX IMVI [33] = assay: Concentration for 50% cell kill against melanoma LOX IMVI cell line was determined; details: Homo sapiens, read-out: LC50 (the source's name)
LOX IMVI [34] = assay: Cytotoxicity exhibited by the compound for total growth inhibition of melanoma LOX IMVI cell line; details: Homo sapiens
M14 [35] = assay: Effective dose to show cytotoxicity against melanoma M14 cell line was determined; details: Homo sapiens, read-out: ED50 (the source's name)
M14 [36] = assay: Concentration for 50% cell kill against melanoma M14 cell line was determined; details: Homo sapiens, read-out: LC50 (the source's name)
M14 [37] = assay: Cytotoxicity exhibited by the compound for total growth inhibition of melanoma M14 cell line; details: Homo sapiens
Malme-3M [38] = assay: Effective dose to show cytotoxicity against melanoma MALME-3M cell line was determined; details: Homo sapiens, read-out: ED50 (the source's name)
Malme-3M [39] = assay: Concentration for 50% cell kill against melanoma MALME-3M cell line was determined; details: Homo sapiens, read-out: LC50 (the source's name)
Malme-3M [40] = assay: Cytotoxicity exhibited by the compound for total growth inhibition of melanoma MALME-3M cell line; details: Homo sapiens
NCI-H322M = assay: Cytotoxicity exhibited by the compound for total growth inhibition of non-small cell lung cancer NCI-H322M cell line; details: Homo sapiens
NCI-H23 [41] = assay: Effective dose to show cytotoxicity against non-small cell lung cancer NCI-H23 cell line was determined; details: Homo sapiens, read-out: ED50 (the source's name)
NCI-H23 [42] = assay: Concentration for 50% cell kill against non-small cell lung cancer NCI-H23 cell line was determined; details: Homo sapiens, read-out: LC50 (the source's name)
NCI-H23 [43] = assay: Cytotoxicity exhibited by the compound for total growth inhibition of non-small cell lung cancer NCI-H23 cell line; details: Homo sapiens

## Cc1c2ccncc2c(C)c2c1[nH]c1ccc(CO)cc12
T47D [1]
  EC50: 1420 nM
T47D [2]
  TGI: 18400 nM
MDA-MB-453
  CC50: 6020 nM
MDA-N [3]
  EC50: 350 nM
MDA-N [4]
  CC50: 4330 nM
MDA-N [5]
  TGI: 1690 nM
CAKI-1
  GI50: 370 nM
COLO 205 [6]
  CC50: 10200 nM
COLO 205 [7]
  TGI: 2200 nM
HCT-116 [8]
  GI50: 50 nM
HCT-116 [9]
  CC50: > 100000 nM
HCT-116 [10]
  EC50: 50 nM
KM12 [11]
  CC50: 7380 nM
KM12 [12]
  TGI: 1520 nM
IGROV-1
  GI50: 180 nM
KM12 [13]
  EC50: 160 nM
MOLT-4 [14]
  EC50: 10 nM
K562 [15]
  CC50: > 100000 nM
K562 [16]
  TGI: 110 nM
CCRF-CEM [17]
  CC50: > 100000 nM
CCRF-CEM [18]
  TGI: 1010 nM
HL-60 [19]
  CC50: 900 nM
HL-60 [20]
  EC50: 20 nM
K562 [21]
  EC50: 30 nM
RPMI-8226 [22]
  EC50: 30 nM
RPMI-8226 [23]
  CC50: 5570 nM
RPMI-8226 [24]
  TGI: 220 nM
SR [25]
  EC50: 40 nM
SR [26]
  TGI: 490 nM
MOLT-4 [27]
  CC50: 4090 nM
MOLT-4 [28]
  TGI: 40 nM
CCRF-CEM [29]
  EC50: 60 nM
MDA-N [30]
  GI50: 350 nM
LOX IMVI [31]
  EC50: 370 nM
MOLT-4 [32]
  GI50: 10 nM
LOX IMVI [33]
  CC50: > 100000 nM
LOX IMVI [34]
  TGI: 3030 nM
M14 [35]
  EC50: 600 nM
M14 [36]
  CC50: 34100 nM
M14 [37]
  TGI: 3650 nM
Malme-3M [38]
  EC50: 640 nM
Malme-3M [39]
  CC50: 820 nM
Malme-3M [40]
  TGI: 7350 nM
NCI-H322M
  TGI: 11500 nM
NCI-H23 [41]
  EC50: 680 nM
NCI-H23 [42]
  CC50: 79000 nM
NCI-H23 [43]
  TGI: 9440 nM

Source: ChEMBL document CHEMBL1129835, “Selective cytotoxicity of certain 9-substituted ellipticines for leukemia cells in a variety of leukemia cell cultures” (1997)
